Biological target: WT STING (Homo sapiens, UniProt Q86WV6, H232R)
Test: Digitonin assay using 293T wtSTING-FL reporter cells
Format: cell-based
Design: host or cells: 293T (ATCC CRL-3216), stably transfected
Settings: 293T wtSTING-FL cells, digitonin buffer 30 min, then 5 h, ISRE firefly luciferase reporter
Text: […] […] (SEQ ID NO:2) containing four interferon-sensitive response elements (ISRE) were synthesized by Sigma Aldrich (Czech Republic, Prague). The oligonucleotides were mixed in equal molar amounts, hybridized, and cleaved by restriction endonucleases HindIII (cat. #.R0104S, NEB, Ipswich, USA) and BglII (cat. #R0144S, NEB, Ipswich, USA). Ultimately, they were ligated into plasmid pGL4.27 (cat. #E6651, Promega, Madison, USA) linearized with the same enzymes. As result the sequence with four ISRE sites was placed upstream of the minimum promoter of firefly luciferase reporter gene.
293T cells (cat. #CRL-3216, ATCC, Manassas, USA) were seeded a day before transfection at density 125,000 cells per cm^2 onto poly-D-lysine (cat. #P6407, Sigma Aldrich, Czech Republic) coated six well plates in antibiotic free DMEM with high glucose (cat. #D5796, Sigma Aldrich, Czech Republic) supplemented with 10% heat inactivated FBS (cat. #S1520, Biowest, Riverside, USA). On the day of transfection, 2.5 μg of the plasmid pUNO1-hSTING-WT (cat. #punol-hstingwt, InvivoGen, San Diego, USA,) encoding human wild type STING (WT STING) was diluted in 125 μL OptiMEM medium (cat. #31985062, ThermoFisher, Waltham, USA) and mixed with 125 μL of the same medium containing 12.5 μL of Lipofectamine 2000 (cat. #11668019, ThermoFisher, Waltham, USA). After 5 minutes incubation at room temperature (RT), 250 μL of the mixture was added dropwise to the cells in one well. Cells were incubated 36 hours at 37° C. with 5% CO2, and then detached with 0.05% Trypsin and 0.22 g/L EDTA (both cat. #L0941, Biowest, Riverside, USA).
Transfected cells were seeded onto poly-D-lysine coated six well plates at density 50,000 cells per 1 cm^2 in DMEM medium with high glucose containing 10% heat inactivated FBS, 30 μg/mL blasticidin (cat. #ant-b1-05, InvivoGen, San Diego, USA), 0.06 mg/ml Penicillin G and 0.1 mg/ml Streptomycin Sulfate (both cat. #. L0018, Biowest, Riverside, USA). The medium was replenished every 3-4 days until visible colonies of cells resistant to blasticidin were formed.
Blasticidin resistant cells stably expressing WT STING were further transfected with […] plasmid following the same procedure as described above. The transfected cells were selected for the resistance to 300 μg/mL hygromycin (cat. #. 10687010, ThermoFisher, Waltham, USA) in DMEM with high glucose containing 10% heat inactivated FBS, 30μg/mL blasticidin, 0.06 mg/ml Penicillin G and 0.1 mg/ml Streptomycin Sulfate. Homogeneous culture of stably double transfected cells was prepared by limiting dilution of cells in 96 well plates and wells with cells were selected that originated from a single cell. These cells were expanded, and expression of WT STING was confirmed by western blot using monoclonal mouse anti STING antibodies (cat. #. MAB7169, 1:1000 dilution; […]. Genomic DNA from the transfected cells was amplified with primers pUNO1_Seq_F ([…]) (SEQ ID NO:3) and pUNO1_Seq_R ([…]) (SEQ ID NO:4) that were complementary to pUNO1 plasmid and the presence of WT STING gene in the transfected cells was confirmed by DNA sequencing.
293T wtSTING-FL cells were seeded at density of 250,000 cells per cm^2 onto 96 well poly-D-lysine coated plates in 100 μl DMEM with high glucose supplemented with 10% heat inactivated FBS. The medium was removed next day and three fold serial dilutions of compounds in Digitonin buffer containing 50 mmol·l^−1 HEPES (cat. #H3375, Sigma Aldrich, Czech Republic) pH 7.0, 100 mmol·l^−1 KCl, 3 mmol·l^−1 MgCl2, 0.1 mmol.·l^−1 DTT (cat. #D0632, Sigma Aldrich, Czech Republic), 85 mmol·l^−1 Sucrose (cat. #S7903, Sigma Aldrich, Czech Republic), 0.2% BSA (cat. #A2153, Sigma Aldrich, Czech Republic), 1 mmol·l^−1 ATP (cat. #A1852, Sigma Aldrich, Czech Republic), 0.1 mmol·l^−1 GTP (cat. #G8877, Sigma Aldrich, Czech Republic), and 10 μg/mL Digitonin A (cat. #D141, Sigma Aldrich, Czech Republic) were added to the cells. […]

Sequence of WT STING (Q86WV6 whole entry H232R): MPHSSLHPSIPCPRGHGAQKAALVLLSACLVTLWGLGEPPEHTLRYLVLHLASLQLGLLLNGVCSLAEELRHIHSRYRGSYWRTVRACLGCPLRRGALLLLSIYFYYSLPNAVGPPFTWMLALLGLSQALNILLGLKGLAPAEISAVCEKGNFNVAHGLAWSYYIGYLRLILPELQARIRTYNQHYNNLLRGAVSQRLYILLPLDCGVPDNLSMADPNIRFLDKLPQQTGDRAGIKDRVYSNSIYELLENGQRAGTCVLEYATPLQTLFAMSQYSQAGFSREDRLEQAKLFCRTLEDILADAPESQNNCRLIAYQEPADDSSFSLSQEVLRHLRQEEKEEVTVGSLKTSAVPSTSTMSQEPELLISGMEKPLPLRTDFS

SMILES	EC50
Nc1nc2c(ncn2[C@@H]2O[C@@H]3COP(=O)(O)O[C@H]4[C@H](n5cnc6c(N)ncnc65)CO[C@@H]4COP(=O)(O)O[C@H]3[C@H]2F)c(=O)[nH]1 [Compound 24, (1S,6R,8R,9R,10R,15R,18R)-8-(2-amino-6-oxo-6,9-dihydro-1H-purin-9-yl)-18-(6-amino-9H-purin-9-yl)-9-fluoro-3,12-dihydroxy-2,4,7,11,13,16-hexaoxa-3λ^5,12λ^5-diphosphatricyclo[13.3.0.0^6,10]octadecane-3,12-dione]	30 nM
Nc1nc2c(ncn2[C@@H]2CO[C@@H]3COP(=O)(O)O[C@H]4[C@@H](F)[C@H](n5cnc6c(N)ncnc65)O[C@@H]4COP(=O)(O)O[C@@H]23)c(=O)[nH]1 [Compound 51, (1S,6R,8R,9R,10R,15R,18R)-18-(2-amino-6-oxo-6,9-dihydro-1H-purin-9-yl)-8-(6-amino-9H-purin-9-yl)-9-fluoro-3,12-dihydroxy-2,4,7,11,13,16-hexaoxa-3λ^5,12λ^5-diphosphatricyclo[13.3.0.0^6,10]octadecane-3,12-dione]	80 nM
Nc1nc2c(ncn2[C@@H]2CO[C@@H]3COP(=O)(O)O[C@H]4[C@H](n5cnc6c(N)ncnc65)CO[C@@H]4COP(=O)(O)O[C@@H]23)c(=O)[nH]1 [Compound 52, (1S,6R,9R,10S,15R,18R)-9-(2-amino-6-oxo-6,9-dihydro-1H-purin-9-yl)-18-(6-amino-9H-purin-9-yl)-3,12-dihydroxy-2,4,7,11,13,16-hexaoxa-3λ^5,12λ^5-diphosphatricyclo[13.3.0.0^6,10]octadecane-3,12-dione]	1350 nM
Nc1nc2c(ncn2[C@@H]2CO[C@@H]3COP(=O)(O)O[C@H]4C[C@H](n5cnc6c(N)ncnc65)O[C@@H]4COP(=O)(O)O[C@@H]23)c(=O)[nH]1 [Compound 53, (1S,6R,8R,10S,15R,18R)-18-(2-amino-6-oxo-6,9-dihydro-1H-purin-9-yl)-8-(6-amino-9H-purin-9-yl)-3,12-dihydroxy-2,4,7,11,13,16-hexaoxa-3λ^5,12λ^5-diphosphatricyclo[13.3.0.0^6,10]octadecane-3,12-dione]	280 nM

More lines, now with the values ahead:

EC50	SMILES
20 nM	Nc1ncnc2c1ncn2[C@@H]1CO[C@@H]2COP(=O)(O)O[C@H]3[C@@H](F)[C@H](n4cnc5c(N)ncnc54)O[C@@H]3COP(=O)(O)O[C@@H]12 [Compound 28, (1S,6R,8R,9R,10R,15R,18R)-8,18-bis(6-amino-9H-purin-9-yl)-9-fluoro-3,12-dihydroxy-2,4,7,11,13,16-hexaoxa-3λ^5,12λ^5-diphosphatricyclo[13.3.0.0^6,10]octadecane-3,12-dione]
450 nM	Nc1ncnc2c1ncn2[C@@H]1CC[C@@H]2COP(=O)(O)O[C@H]3[C@@H](F)[C@H](n4cnc5c(N)ncnc54)O[C@@H]3COP(=O)(O)O[C@H]21 [Compound 34, (1R,6R,8R,9R,10R,15R,18R)-8,18-bis(6-amino-9H-purin-9-yl)-9-fluoro-3,12-dihydroxy-2,4,7,11,13-pentaoxa-3λ^5,12λ^5-diphosphatricyclo[13.3.0.0^6,10]octadecane-3,12-dione]
280 nM	Nc1ncnc2c1ncn2[C@@H]1CO[C@@H]2COP(=O)(O)O[C@H]3C[C@H](n4cnc5c(N)ncnc54)O[C@@H]3COP(=O)(O)O[C@@H]12 [Compound 50, (1S,6R,8R,10S,15R,18R)-8,18-bis(6-amino-9H-purin-9-yl)-3,12-dihydroxy-2,4,7,11,13,16-hexaoxa-3λ^5,12λ^5-diphosphatricyclo[13.3.0.0^6,10]octadecane-3,12-dione]
10 nM	Nc1ncnc2c1ncn2[C@@H]1CO[C@@H]2COP(=O)(S)O[C@H]3[C@@H](F)[C@H](n4cnc5c(N)ncnc54)O[C@@H]3COP(=O)(S)O[C@@H]12 (stereo partly drawn) [Compound 54, (1S,6R,8R,9R,10R,15R,18R)-8,18-bis(6-amino-9H-purin-9-yl)-9-fluoro-3,12-disulfanyl-2,4,7,11,13,16-hexaoxa-3λ^5,12λ^5-diphosphatricyclo[13.3.0.0^6,10]octadecane-3,12-dione]
10 nM	Nc1ncnc2c1ncn2[C@@H]1CO[C@@H]2COP(=O)(S)O[C@H]3[C@@H](F)[C@H](n4cnc5c(N)ncnc54)O[C@@H]3COP(=O)(S)O[C@@H]12 (stereo partly drawn) [Compound 55, (1S,6R,8R,9R,10R,15R,18R)-8,18-bis(6-amino-9H-purin-9-yl)-9-fluoro-3,12-disulfanyl-2,4,7,11,13,16-hexaoxa-3λ^5,12λ^5-diphosphatricyclo[13.3.0.0^6,10]octadecane-3,12-dione]
